Assay: In vivo pharmacokinetics of oral formulations in healthy human subjects
Procedure: The three dose levels included 25 mg (representative formulation listed in Table 1.2), 200 mg (representative formulation listed in Table 1.3) and 400 mg of the drug compound.

Cc1ccc(C2O[C@H](CO)[C@@H](O)[C@H](O)[C@H]2O)cc1Cc1ccc(-c2ccc(F)cc2)s1 (stereo partly drawn) [compound of Formula (I-S)]
mean AUCinf values across formulations and food conditions (all doses (25 mg, 200 mg and 400 mg), fed or fasting): comparable
effect of food on the extent of bioavailability (human subjects, fed versus fasted): no significant effect
half-life (human, plasma, oral, all treatment regimens regardless of formulation and food intake, read-out: mean t1/2): 8 to 12 h

Reference: patent publication US10617668B2, “Pharmaceutical formulations” (Janssen Pharmaceutica NV, priority 2010, dated 2020)
